This is an account of results in article PMC11170969, “Photoaffinity probe‐based antimalarial target identification of artemisinin in the intraerythrocytic developmental cycle of Plasmodium falciparum” (iMeta, 2024).

In experiment [1] the target is T1, PfOAT (Plasmodium falciparum, UniProt Q6LFH8).
T1 construct: gene OAT; recombinant, pET-28a(+), E. coli BL21(DE3), Ni-NTA
T1 sequence (Q6LFH8 1-414): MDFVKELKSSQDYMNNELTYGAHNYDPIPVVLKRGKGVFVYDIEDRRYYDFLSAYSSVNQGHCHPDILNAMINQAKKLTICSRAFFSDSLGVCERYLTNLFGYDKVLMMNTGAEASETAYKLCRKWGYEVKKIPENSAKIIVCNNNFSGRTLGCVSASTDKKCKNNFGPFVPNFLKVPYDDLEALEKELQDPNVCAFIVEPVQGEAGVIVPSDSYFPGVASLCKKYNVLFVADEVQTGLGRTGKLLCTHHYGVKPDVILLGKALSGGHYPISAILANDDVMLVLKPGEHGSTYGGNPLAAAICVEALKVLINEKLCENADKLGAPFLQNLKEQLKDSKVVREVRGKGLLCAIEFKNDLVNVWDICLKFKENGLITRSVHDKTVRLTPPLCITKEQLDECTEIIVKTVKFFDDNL
Kind of experiment: OAT activity assay kit, absorbance at […] nm. Type of experiment: biochemical. The following applies: without heme activation (also tested with heme activation); 1 h preincubation; methods name the inhibitor ART, 0-80 μM.

The target of experiment [2] is T2, PfEGF1‐α (Plasmodium falciparum, UniProt Q8I0P6).
T2 construct: gene PF3D7_1357000; recombinant, pET-28a(+), E. coli BL21(DE3), Ni-NTA
T2 sequence (Q8I0P6 1-443): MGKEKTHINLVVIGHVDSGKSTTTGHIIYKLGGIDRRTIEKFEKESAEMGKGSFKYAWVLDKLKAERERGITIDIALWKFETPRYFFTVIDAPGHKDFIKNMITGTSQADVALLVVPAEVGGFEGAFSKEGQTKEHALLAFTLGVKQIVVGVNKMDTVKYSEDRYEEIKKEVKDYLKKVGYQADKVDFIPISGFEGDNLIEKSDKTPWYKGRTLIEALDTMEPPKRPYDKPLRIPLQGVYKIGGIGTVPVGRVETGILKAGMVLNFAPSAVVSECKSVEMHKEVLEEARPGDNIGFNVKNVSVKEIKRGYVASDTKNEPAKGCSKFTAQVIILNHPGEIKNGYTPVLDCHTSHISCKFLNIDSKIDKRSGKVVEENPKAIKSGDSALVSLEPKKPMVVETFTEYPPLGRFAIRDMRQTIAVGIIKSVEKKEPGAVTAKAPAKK
Kind of experiment: DARTS; competition with APP photolabelling. The following applies: DARTS: 5 μM protein, room temperature, 2 h, pronase; competition: 10 μM ATS. Type of experiment: binding.

Experiment [3] deals with T3, PfTIM (Plasmodium falciparum, UniProt Q7KQM0).
T3 construct: gene TPI; recombinant, pET-28a(+), E. coli BL21(DE3), Ni-NTA
The experiment is described as follows: enzyme activity inhibition. Type of experiment: biochemical. The following applies: binding also shown by DARTS; activity assay conditions not stated in main text.

The target of experiment [4] is T4, PfGAPDH (Plasmodium falciparum, UniProt Q8IKK7).
T4 construct: gene PF3D7_1462800; recombinant, pET-28a(+), E. coli BL21(DE3), Ni-NTA
Kind of experiment: enzyme activity inhibition. Type of experiment: biochemical. The following applies: binding also shown by DARTS; activity assay conditions not stated in main text; covalent Glu59 adduct suggested by MS in a separate test with hemin and ascorbate.

The target in experiment [5] is T5, PfLDH (Plasmodium falciparum, UniProt Q76NM3).
T5 construct: gene PF3D7_1324900; recombinant, pET-28a(+), E. coli BL21(DE3), Ni-NTA
Kind of experiment: enzyme activity inhibition. In kind it is biochemical. The following applies: binding also shown by DARTS; activity assay conditions not stated in main text.

T3 sequence (Q7KQM0 whole entry): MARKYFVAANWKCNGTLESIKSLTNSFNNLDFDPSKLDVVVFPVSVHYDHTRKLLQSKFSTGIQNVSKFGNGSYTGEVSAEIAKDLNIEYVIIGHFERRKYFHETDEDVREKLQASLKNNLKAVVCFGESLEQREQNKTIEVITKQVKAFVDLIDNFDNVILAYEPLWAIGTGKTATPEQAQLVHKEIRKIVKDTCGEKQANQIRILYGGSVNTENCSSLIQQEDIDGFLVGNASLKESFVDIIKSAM
T5 sequence (Q76NM3 1-316): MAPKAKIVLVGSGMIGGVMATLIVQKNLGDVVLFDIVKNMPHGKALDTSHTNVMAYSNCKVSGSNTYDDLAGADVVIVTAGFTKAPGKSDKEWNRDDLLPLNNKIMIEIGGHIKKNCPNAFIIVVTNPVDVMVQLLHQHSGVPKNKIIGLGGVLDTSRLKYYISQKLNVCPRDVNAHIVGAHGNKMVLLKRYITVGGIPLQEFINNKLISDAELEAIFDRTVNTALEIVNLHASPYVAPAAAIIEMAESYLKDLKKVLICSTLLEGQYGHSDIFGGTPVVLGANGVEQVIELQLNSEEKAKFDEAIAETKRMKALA
T4 sequence (Q8IKK7 entry or part of it): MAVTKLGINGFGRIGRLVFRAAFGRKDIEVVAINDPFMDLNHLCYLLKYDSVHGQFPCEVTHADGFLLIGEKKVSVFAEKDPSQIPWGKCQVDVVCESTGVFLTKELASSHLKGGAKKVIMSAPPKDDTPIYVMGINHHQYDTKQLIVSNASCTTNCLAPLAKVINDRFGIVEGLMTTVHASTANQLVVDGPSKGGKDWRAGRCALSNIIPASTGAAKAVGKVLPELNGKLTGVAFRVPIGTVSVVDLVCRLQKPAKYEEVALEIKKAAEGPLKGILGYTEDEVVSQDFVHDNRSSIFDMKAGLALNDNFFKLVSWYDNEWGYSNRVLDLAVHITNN

As for `C[C@H]1[C@H](OC(=O)CCC(=O)O)O[C@@H]2O[C@@]3(C)CC[C@H]4[C@H](C)CC[C@@H]1[C@@]24OO3` [ATS, artesunate], the “OAT activity assay kit, absorbance at 340 nm” value in experiment [1] was “ATS can significantly inhibit its enzyme activity in both heme‐activated and nonactivated states”. Moreover, the “DARTS; competition with APP photolabelling” value in experiment [2] is listed as “the PfEGF1‐α proteins became more resistant to proteolysis after incubation with ATS”. For the same molecule, the half-maximal inhibitory concentration result in experiment [3], in experiment [4] and in experiment [5] was “the half‐maximal inhibitory concentrations were at low micromolar concentrations” each time.
